The target of experiment [1] is T1, rabbit kidney ACE (Oryctolagus cuniculus, UniProt P12822).
T1 construct: purchased Sigma; host or cells: rabbit kidney
T1 sequence (P12822 34-1310): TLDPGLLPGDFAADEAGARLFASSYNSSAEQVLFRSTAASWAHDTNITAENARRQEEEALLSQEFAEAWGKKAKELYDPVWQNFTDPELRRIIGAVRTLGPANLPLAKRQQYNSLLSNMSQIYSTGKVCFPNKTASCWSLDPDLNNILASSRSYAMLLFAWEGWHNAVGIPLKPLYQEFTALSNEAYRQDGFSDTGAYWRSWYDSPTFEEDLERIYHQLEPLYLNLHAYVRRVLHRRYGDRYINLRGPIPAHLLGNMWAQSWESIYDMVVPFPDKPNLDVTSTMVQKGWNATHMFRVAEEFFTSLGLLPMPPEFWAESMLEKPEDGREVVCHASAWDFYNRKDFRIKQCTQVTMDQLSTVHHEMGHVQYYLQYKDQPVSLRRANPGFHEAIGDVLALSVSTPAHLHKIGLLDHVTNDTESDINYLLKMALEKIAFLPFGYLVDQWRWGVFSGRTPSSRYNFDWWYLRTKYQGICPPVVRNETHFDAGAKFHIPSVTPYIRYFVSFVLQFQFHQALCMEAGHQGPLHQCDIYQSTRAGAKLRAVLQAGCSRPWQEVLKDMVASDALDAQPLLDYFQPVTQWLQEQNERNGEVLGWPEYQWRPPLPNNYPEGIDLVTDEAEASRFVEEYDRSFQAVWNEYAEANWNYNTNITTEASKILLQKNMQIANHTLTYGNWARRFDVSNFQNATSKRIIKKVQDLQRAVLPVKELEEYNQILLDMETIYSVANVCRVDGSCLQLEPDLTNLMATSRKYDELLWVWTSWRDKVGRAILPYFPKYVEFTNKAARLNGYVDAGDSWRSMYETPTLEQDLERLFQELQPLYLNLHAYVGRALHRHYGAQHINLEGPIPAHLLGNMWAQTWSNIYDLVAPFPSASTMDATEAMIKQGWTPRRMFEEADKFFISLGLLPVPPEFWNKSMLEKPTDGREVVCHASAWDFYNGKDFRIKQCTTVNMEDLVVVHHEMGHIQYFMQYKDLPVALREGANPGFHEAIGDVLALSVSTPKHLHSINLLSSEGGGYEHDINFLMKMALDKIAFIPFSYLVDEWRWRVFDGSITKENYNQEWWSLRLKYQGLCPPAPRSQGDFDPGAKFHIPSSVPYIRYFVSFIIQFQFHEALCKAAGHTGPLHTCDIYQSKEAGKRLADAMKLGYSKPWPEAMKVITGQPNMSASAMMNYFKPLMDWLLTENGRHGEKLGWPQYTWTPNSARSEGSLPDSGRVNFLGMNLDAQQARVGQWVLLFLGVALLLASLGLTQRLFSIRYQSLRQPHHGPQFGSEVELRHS
In words: Determination of inhibition constants (Ki), fluorometric ACE assay, hydrolysis of Hippuryl-His-Leu. It counts as biochemical. As for the experimental part: The product, His-Leu, was then derivatized to a fluorophore by the addition of 2% o-phthalaldehyde (0.1 mL) in MeOH, followed by incubation at 25° C. for 8 minutes, addition of 2N HCl (0.2 mL), and then measuring fluorescence after 15 minutes incubation at 25° C.
The fluorescence intensity (arbitrary units) was determined using an SLM Aminco model 8000 spectrofluorometer equipped with a temperature regulated cell using an excitation wavelength at 360 nm and with an emission wavelength at 490 nm. The amount of His-Leu formed with time was determined from standard curves of fluorescence versus concentration of His-Leu (Sigma).
Inhibition constants were determined from double reciprocal plots of rate of product formation versus substrate concentration in the absence and presence of inhibitor.

Experiment [2] addresses T1, rabbit kidney ACE. In words: in vitro inhibition of ACE by soluble compound pools (deconvolution analysis of library, fluorometric assay, IC50). The experiment is classed as biochemical. To be noted: identified by iterative assay and sub-library resynthesis. The text has this:
Functionalized prolines and proline analogs are frequently found as the C-terminal residue in numerous ACE inhibitors. Using the methods described herein, a library of prolines and proline analogs has been prepared. The library was formed by the split synthesis method^35, using four amino acids, four aldehydes, five olefins, and three mercaptoacyl chlorides as shown in FIG. 3 below. […] After cleavage from the resin (10% TFA in dichloromethane) and deacetylation of the protected mercaptoacyl proline products with ethylenediamine, the library was screened for in vitro inhibition of ACE^33 as soluble compound pools through four iterations of assay and sub-library resynthesis. At each step of this deconvolution analysis, the building block affording the most inhibitory pool was selected for the subsequent sub-library resynthesis.
To each product was added 200 μ.LAMBDA. of 1.0M ethylenediamine in methanol under nitrogen. […] The ACE inhibitory activity of each pool was immediately determined. […]
The fluorescence intensity (arbitrary units) was determined using an SLM Aminco model 8000 spectrofluorometer equipped with a temperature regulated cell using an excitation wavelength at 360 nm and with an emission wavelength at 490 nm. The amount of His-Leu formed with time was determined from standard curves of fluorescence versus concentration of His-Leu (Sigma). […]

Usually Ki stands for the dissociation constant of the complex between target and ligand, obtained from inhibition or displacement.

Like-named read-outs stand apart in the source and are kept apart here.

`COC(=O)[C@H]1C[C@@H](C(=O)O)N(C(=O)[C@H](C)CS)[C@H]1c1ccccc1` [Compound 9, 1-(3'-thio-2'(S)-methyl-1'-oxopropyl)-5-phenyl-2,4-pyrrolidinedicarboxylicacid 4-methyl ester]: the Ki in experiment [1] (50 pM enzyme, 20 minute preincubation, assay times 10 or 20 minutes, pH 8.3, read-out: Ki (dissociation constant of the enzyme-inhibitor complex)) was 0.16 ± 0.05 nM; in experiment [1] (after deacetylation, read-out: Ki (individual diastereomers after deacetylation, later eluting isomer)) it was ~0.16 nM. Also, the type of inhibition result in experiment [1] (double reciprocal plots, 50 pM enzyme, 20 minute preincubation) is recorded as “competitive type inhibition”. The “fold more active than captopril” value in experiment [1] (relative to captopril in the same assay) is given as “approximately 3 fold”. Further, in experiment [2], the “ACE inhibitory activity in words (library deconvolution)” value is given as “potent ACE inhibitor”.
In the case of `COC(=O)[C@@H]1C[C@H](C(=O)O)N(C(=O)[C@H](C)CS)[C@@H]1c1ccccc1` (single isomer, unassigned) [earlier eluting isomer], in experiment [1] (after deacetylation, isomer assigned 2-R, read-out: Ki (individual diastereomers after deacetylation, earlier eluting isomer)), the Ki was > 1000 nM.
